Each structure is given as a SMILES string.

Consider 7 compounds from patent publication US8461205B2, “Anthranilic acid derivatives” (Chelsea Therapeutics, Inc., priority 2007, dated 2013).

One data set relates to cell proliferation. As to conditions: effect stated to be unrelated to DHODH inhibition; cited from earlier work.
A further data set addresses DHODH (Homo sapiens, UniProt Q02127). Kind of data set: DHODH inhibition. Type of data set: biochemical.
For data set [1], the system named is human T lymphoblast cell line (Jurkat). Kind of data set: Inhibition of T-cell proliferation (Jurkat, 3H-TdR incorporation). Format: cell-based. The conditions noted are these: Homo sapiens; Jurkat cells, 3 days culture, 3H-TdR pulse last 4 hours. On the procedure: Inhibition of T cell proliferation was studied in a functional assay. A human T lymphoblast cell line (Jurkat) was cultured in the presence and absence, respectively, of DHODH inhibiting compounds. Jurkat cells were seeded in microtiterplates at a concentration of 5×10^5/mL in RPMI 1640 growth media supplemented with ultraglutamin, 10% fetal calf serum, 1 mM sodium pyruvat, 10 mM HEPES and 0.1 mg/mL gentamycin. A dilution series of ten different concentrations of inhibitor was added to the wells and the plates were kept in a cell incubator for 3 days. At the beginning of the last 4 hours period, the cultures were pulsed with 10 μl/well 0.1 Ci/mmol 3H-TdR and then harvested on filter papers and counted with a ([…]. The IC50 values for each compound were calculated from the obtained dose response curves. Adding uridine to a concentration of about 50 μM in the wells monitored the specificity for the mechanism i.e., the inhibition of cell proliferation is due to DHODH inhibition and not to a general cell toxicity of the compounds. This addition of uridine reverses the anti-proliferative effect by bypassing the DHODH enzyme using an external source of pyrimidine. Results in respect of a number of compounds of the invention are reported as Jurkat IC50 (in μM) in Table 1.
(§1) The inhibition of T cell proliferation was studied in a human T lymphoblast cell line (Jurkat). The IC50 value for each compound was calculated from the dose response curve. Adding uridine was used to monitor the specificity of the DHODH mechanism. The metabolic stability was studied in human liver microsomes. Table 1 exemplifies the invention, without limiting the scope thereof.

Data set [2] can be described thus: Metabolic stability in human liver microsomes. Type of data set: in vitro ADME. As to conditions: human liver microsomes, 0.5 μM compound, 1 mg/mL protein, 1 mM NADPH, pH 7.4, 37° C.; "stable" = no degradation could be confirmed. On the procedure: The metabolic stability of the test compounds was determined using human liver microsomes. Incubations were performed with a compound concentration of 0.5 μM and a protein concentration of 1 mg/mL in 50 mM sodium phosphate buffer at physiological pH (7.4) and temperature (37° C.). The incubation mixture was preincubated at 37° C. prior to addition of NADPH (1 mM, final concentration). At several time points during 60 minutes, aliquots were removed and added to a 96 well plate placed on dry ice and deep-frozen. Samples were analyzed with LC-MS for concentration of parent compound. From the slope of the log [parent compound] vs. incubation time regression line, the in vitro half-life […] was determined. The intrinsic clearance (CLint) can be calculated using a modified Michaelis-Menten relationship, i.e., CLint=ln 2/t1/2. The CLint can then be converted to CL by using the well-stirred model of hepatic extraction. A value of 1.24 L/h/kg of the hepatic blood flow in man can be used. Results with respect to a number of compounds of the invention are reported as t1/2 (in minutes) in Table 1.
as §1

DHODH, sequence (Q02127 whole entry, species assumed): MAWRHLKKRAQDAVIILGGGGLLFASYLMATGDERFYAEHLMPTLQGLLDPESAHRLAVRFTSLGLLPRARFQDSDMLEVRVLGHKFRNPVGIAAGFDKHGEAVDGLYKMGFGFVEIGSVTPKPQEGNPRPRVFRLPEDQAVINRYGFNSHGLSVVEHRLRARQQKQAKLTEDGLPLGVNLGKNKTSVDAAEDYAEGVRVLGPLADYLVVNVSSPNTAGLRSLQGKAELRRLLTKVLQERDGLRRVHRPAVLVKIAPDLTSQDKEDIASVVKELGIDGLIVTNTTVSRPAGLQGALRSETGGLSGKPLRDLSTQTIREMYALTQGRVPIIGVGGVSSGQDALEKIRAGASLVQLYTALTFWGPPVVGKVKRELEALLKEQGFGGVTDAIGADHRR

On to `COC(=O)c1cc(OCc2cc(OC)ccc2OC)ccc1NC(C)=O` [2-acetylamino-5-(2,5-dimethoxy-benzyloxy)-benzoic acid methyl ester], for which the “inhibition of cell proliferation (in words)” value in the data set on cell proliferation was “inhibits cell proliferation”. As for `COc1ccc(OC)c(COc2ccc(O)c(C(=O)O)c2)c1` [5-(2,5-dimethoxy-benzyloxy)-2-hydroxy-benzoic acid], on DHODH, the “activity as DHODH inhibitor (in words)” value was “inactive”. The compound `CCC(=O)Nc1ccc(COc2ccc(C(F)(F)F)cc2Br)cc1C(=O)O` [INV 7, 5-(2-Bromo-4-trifluoromethyl-phenoxymethyl)-2-propionylamino-benzoic acid] yielded a half-maximal inhibitory concentration (IC50) in data set [1] of 490 nM. For the same compound, the half-life at 0.5 μM in data set [2] was determined as 6.8 h.

As for `CCC(=O)Nc1ccc(/C=C/c2ccc(Cl)cc2C(F)(F)F)cc1C(=O)O` [INV 13, 5-[(E)-2-(4-Chloro-2-trifluoromethyl-phenyl)-vinyl]-2-propionylamino-benzoic acid], in data set [1], the IC50 was found to be 50 nM. In data set [2], the half-life at 0.5 μM came out at 1.75 h. For `CCC(=O)Nc1ccc(COc2ccc(Cl)cc2Cl)cc1C(=O)O` [INV 6, 5-(2,4-Dichloro-phenoxymethyl)-2-propionylamino-benzoic acid], the half-maximal inhibitory concentration (IC50) in data set [1] is 350 nM. Besides, in data set [2], the half-life at 0.5 μM came out at 3.32 h.

With `CCC(=O)Nc1ccc(/C=C/c2ccc(F)c(C(F)(F)F)c2)cc1C(=O)O` [INV 23, 5-[(E)-2-(4-Fluoro-3-trifluoromethyl-phenyl)-vinyl]-2-propionylamino-benzoic acid], in data set [1], the 50% inhibitory concentration (IC50) stood at 750 nM. In data set [2], the half-life at 0.5 μM is 2.45 h. On the same counts, the results for `CCC(=O)Nc1ccc(/C=C/c2ccc(Cl)c(C(F)(F)F)c2)cc1C(=O)O` [INV 24, 5-[(E)-2-(4-Chloro-3-trifluoromethyl-phenyl)-vinyl]-2-propionylamino-benzoic acid] are 570 nM and 5.75 h.
